This is an account of results in patent US20220387618A1, “METHODS OF TREATING HER2 POSITIVE BREAST CANCER WITH TUCATINIB IN COMBINATION WITH AN ANTI-HER2 ANTIBODY-DRUG CONJUGATE” (Seagen Inc., priority 2019, published 2022).

Data set [1] relates to BT-474 breast cancer cells. The experiment in a line: BT-474 cell line-derived (CDX) subcutaneous xenograft model. The class given is in vivo, mice. The note with it: BT-474 CDX; tucatinib 50 mg/kg orally twice daily; T-DM1 10 mg/kg IV single dose; nine animals per arm. The protocol: Cell line-derived (CDX) BT-474 breast cancer cells were implanted subcutaneously into the flanks of female immunocompromised mice. […] Each study arm was comprised of nine animals each. Tumor volume was monitored until the designated endpoint of the study. P-values were determined by t-test analysis comparing the tucatinib/T-DM1 combination to the closest single agent arm (ref brackets). In this model, the combination of tucatinib and T-DM1 produced three complete responses and six partial responses, while tucatinib alone generated eight partial responses, and T-DM1 alone generated nine partial responses.

Data set [2] concerns the target T1, HER2 (Homo sapiens, UniProt P04626).
T1 construct: endogenous in cells; host or cells: SK-BR-3
Nature of the data set: Plasma membrane-associated HER2 levels by quantitative FACS (qFACS) after tucatinib treatment. The format is cell-based. The conditions noted are these: BT-474, SK-BR-3, HCC-1419, UACC-893; tucatinib 30 nM or 100 nM; 24 hours and 48 hours. The protocol: (§1) To assess changes to HER2 protein levels upon treatment with tucatinib, HER2-amplified breast cancer cell lines were analyzed by Western blot and quantitative FACS (qFACS). HER2 protein levels were determined for BT-474, SK-BR-3, HCC-1419, and UACC-893 after treatment with tucatinib at either 30 nM or 100 nM doses, for the duration of 24 hours and 48 hours.
Cell surface levels of HER2 were determined for BT-474, SK-BR-3, HCC-1419, and UACC-893 after treatment with tucatinib at either 30 nM or 100 nM doses, for the duration of 24 hours and 48 hours. Plasma membrane-associated levels of HER2 were determined by quantitative FACS (qFACS) analysis after exclusion of dead cells. In all four cell lines tested, HER2 levels at the cell surface increased after treatment with tucatinib.

The target of data set [3] is T1, HER2. The experiment in a line: HER2 internalization assays with fluorescently-labeled trastuzumab (AF488, QF) in SK-BR-3 cells. The class given is cell-based. The conditions noted are these: tucatinib 100 nM. As to the method:
To probe the dynamics of HER2 at the cell surface upon binding to antibody therapeutics, HER2 internalization assays were conducted over the course of 72 hours. […] FIGS. 10A and 10B show the dynamics of HER2 at the cell surface upon binding to antibody therapeutics.
To probe the dynamics of HER2 at the cell surface upon binding to antibody therapeutics in the presence or absence of tucatinib (100 nM), SK-BR-3 cells were incubated with fluorescently-labeled trastuzumab to mark HER2 at the cell surface as shown in FIGS. 10A and 10B. Excess antibody was washed out. Cells were imaged at time points spanning 72 hours to observe internalization of surface-bound antibody. Concurrent experiments were conducted with trastuzumab labeled with QF […], a quenched fluor which fluoresces upon lysosomal processing and can serve as a proxy for antibody catabolism.

Another data set relates to CTG-0807 model. Nature of the data set: T-DM1-resistant HER2+ patient-derived (PDX) breast cancer model CTG-0807. The format is in vivo, mice. As to the method: (§2) For these experiments, two T-DM1-resistant breast cancer tumor models were selected which scored 3+ by IHC and had metastasized to the lung. Tumor fragments were implanted subcutaneously into the flanks of immunocompromised mice. […] Each study arm was comprised of eight animals each. Tumor volume was monitored until the designated endpoint of the study. P-values were determined by t-test analysis comparing the tucatinib/T-DM1 combination to the closest single agent arm (ref brackets).

The subject of a further data set is CTG-0708 model. The experiment in a line: T-DM1-resistant HER2+ patient-derived (PDX) breast cancer model CTG-0708. The class given is in vivo, mice. The protocol: as §2
The subject of the next data set is HER2+ mBC. The experiment in a line: Phase 1b open-label dose-escalation study ONT-380-004 of tucatinib combined with T-DM1. The class given is in vivo, human. The note with it: PO BID in combination with T-DM1 3.6 mg/kg every 21 days. The protocol: For subjects in the CNS disease-expansion cohorts, trastuzumab and taxane (together or separately) might have been given at any time prior to study enrollment as part of neoadjuvant therapy, adjuvant therapy, or therapy for metastatic disease.
Fifty-seven T-DM1-naive subjects were treated (Borges 2018). […] In these 50 subjects, the median PFS was 8.2 months (95% CI: 4.8, 10.3); the clinical benefit rate (CBR; subjects with best response of complete response (CR) or partial response [PR], or stable disease [SD] for >6 months) among 48 evaluable subjects was 58% (28 subjects). Thirty-four of 50 subjects (68%) treated with the MTD had measurable disease and were evaluable for response with an objective response rate (ORR) of 47% (1 subject with CR, 15 subjects with PR 14 subjects with SD, and 4 subjects with disease progression). Among the subjects whose disease responded to treatment, the median duration of response (DOR) was 6.9 months (95% CI: 2.8, 19.8).

The target of a further data set is P-gp (Homo sapiens, UniProt P08183). The conditions noted are these: concomitant use with digoxin; cited from earlier work.
Data set [4] concerns the target T1, HER2. Nature of the data set: HER2 total protein levels by western blotting (WES system) after tucatinib treatment. The format is cell-based. The conditions noted are these: BT-474, SK-BR-3, HCC-1419, UACC-893; tucatinib 30 nM or 100 nM; 24 hours and 48 hours. As to the method:
as §1
HER2 protein levels were determined for BT-474, SK-BR-3, HCC-1419, and UACC-893 after treatment with tucatinib at either 30 nM or 100 nM doses, for the duration of 24 hours and 48 hours. Protein lysates were generated from cells harvested at each timepoint. HER2 total protein levels were determined by western blotting using a WES™ system, and normalized against GAPDH levels as a loading control. In all four cell lines tested, HER2 total protein levels increased after treatment with tucatinib.
In general terms: A western blot detects proteins with antibodies after separation by electrophoresis.

[5] abbreviates: CTG-0807 PDX, tucatinib 50 mg/kg orally twice daily, T-DM1 10 mg/kg IV single dose, eight animals per arm.
The mark [6] stands for this setting: CTG-0708 PDX, tucatinib 50 mg/kg orally twice daily, T-DM1 10 mg/kg IV single dose, eight animals per arm.

T1 sequence (P04626 23-1255): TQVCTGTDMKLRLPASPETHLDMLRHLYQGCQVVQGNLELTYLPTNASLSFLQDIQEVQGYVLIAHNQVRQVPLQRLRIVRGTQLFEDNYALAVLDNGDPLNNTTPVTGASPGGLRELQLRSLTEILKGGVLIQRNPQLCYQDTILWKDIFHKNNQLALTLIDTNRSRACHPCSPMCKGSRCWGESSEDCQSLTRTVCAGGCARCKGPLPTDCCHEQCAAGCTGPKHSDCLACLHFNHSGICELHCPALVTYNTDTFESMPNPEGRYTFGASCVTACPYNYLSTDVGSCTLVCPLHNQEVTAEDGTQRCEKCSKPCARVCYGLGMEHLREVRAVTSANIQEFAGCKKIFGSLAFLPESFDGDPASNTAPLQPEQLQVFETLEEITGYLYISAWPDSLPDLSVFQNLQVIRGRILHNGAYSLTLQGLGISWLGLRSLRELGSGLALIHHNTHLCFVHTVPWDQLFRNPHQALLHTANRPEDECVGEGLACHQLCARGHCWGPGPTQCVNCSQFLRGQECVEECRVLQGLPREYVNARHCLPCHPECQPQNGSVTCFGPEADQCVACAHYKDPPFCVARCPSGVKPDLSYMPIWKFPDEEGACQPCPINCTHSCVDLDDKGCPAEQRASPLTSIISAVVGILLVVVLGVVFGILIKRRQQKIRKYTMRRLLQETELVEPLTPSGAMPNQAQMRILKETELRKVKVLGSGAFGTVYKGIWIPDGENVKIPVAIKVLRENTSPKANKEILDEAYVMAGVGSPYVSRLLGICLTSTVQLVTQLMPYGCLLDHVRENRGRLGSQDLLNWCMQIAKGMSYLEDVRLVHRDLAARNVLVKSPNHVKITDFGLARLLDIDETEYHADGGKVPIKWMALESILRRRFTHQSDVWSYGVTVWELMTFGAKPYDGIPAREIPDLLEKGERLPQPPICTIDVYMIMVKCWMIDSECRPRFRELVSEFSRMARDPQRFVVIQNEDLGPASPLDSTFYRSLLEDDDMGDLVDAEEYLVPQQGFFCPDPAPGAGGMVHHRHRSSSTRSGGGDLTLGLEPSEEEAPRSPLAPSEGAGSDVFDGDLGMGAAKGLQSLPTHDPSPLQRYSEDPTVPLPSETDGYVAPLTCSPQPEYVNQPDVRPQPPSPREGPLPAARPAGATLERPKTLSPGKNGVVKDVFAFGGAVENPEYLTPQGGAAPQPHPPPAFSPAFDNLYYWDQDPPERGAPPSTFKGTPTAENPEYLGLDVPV
Sequence of P-gp (P08183 whole entry): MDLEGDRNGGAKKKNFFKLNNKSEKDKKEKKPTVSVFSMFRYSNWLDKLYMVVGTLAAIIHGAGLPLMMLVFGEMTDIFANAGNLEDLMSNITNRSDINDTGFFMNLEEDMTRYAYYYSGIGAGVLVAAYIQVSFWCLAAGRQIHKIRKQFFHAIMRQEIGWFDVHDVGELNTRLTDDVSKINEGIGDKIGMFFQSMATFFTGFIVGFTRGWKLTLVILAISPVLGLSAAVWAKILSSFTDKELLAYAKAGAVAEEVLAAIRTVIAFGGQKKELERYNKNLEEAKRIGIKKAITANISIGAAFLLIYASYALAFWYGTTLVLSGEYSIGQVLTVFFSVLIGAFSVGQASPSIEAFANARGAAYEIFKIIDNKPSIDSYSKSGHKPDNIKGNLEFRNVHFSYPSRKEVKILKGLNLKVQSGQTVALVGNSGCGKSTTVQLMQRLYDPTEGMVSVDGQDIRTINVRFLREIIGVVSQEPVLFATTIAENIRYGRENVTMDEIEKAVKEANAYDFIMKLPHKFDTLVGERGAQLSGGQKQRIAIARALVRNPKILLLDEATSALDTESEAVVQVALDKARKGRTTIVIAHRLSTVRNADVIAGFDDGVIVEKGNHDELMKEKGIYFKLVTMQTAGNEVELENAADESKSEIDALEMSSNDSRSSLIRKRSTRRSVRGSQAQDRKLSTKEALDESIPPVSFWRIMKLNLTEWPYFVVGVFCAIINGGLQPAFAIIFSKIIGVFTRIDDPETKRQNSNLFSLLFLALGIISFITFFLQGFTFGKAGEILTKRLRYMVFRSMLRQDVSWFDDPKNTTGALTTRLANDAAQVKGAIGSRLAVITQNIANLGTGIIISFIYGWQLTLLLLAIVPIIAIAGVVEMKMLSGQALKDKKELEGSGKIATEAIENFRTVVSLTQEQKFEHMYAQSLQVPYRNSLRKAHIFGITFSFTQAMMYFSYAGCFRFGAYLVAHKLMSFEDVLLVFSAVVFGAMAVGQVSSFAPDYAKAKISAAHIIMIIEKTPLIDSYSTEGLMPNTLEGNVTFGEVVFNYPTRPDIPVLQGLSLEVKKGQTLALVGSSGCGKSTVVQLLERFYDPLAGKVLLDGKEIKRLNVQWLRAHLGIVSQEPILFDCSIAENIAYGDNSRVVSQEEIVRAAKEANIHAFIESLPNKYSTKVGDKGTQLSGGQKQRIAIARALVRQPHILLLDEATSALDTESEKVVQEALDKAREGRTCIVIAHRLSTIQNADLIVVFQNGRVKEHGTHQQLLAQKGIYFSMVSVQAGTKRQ

In the case of `Cc1cc(Nc2ncnc3ccc(NC4=NC(C)(C)CO4)cc23)ccc1Oc1ccn2ncnc2c1` [tucatinib], the partial responses result is reported as “eight” in data set [1], 6 in the data set with CTG-0807 model (setting [5]) and “two” in the data set with CTG-0708 model (setting [6]). In addition, the “HER2 levels at the cell surface” value on HER2 [2] is listed as “increased”. Moreover, at HER2 [3] (initial effect), the “dwell time of HER2 at the cell surface” value is recorded as “increased the dwell time of HER2 at the cell surface”. Moreover, on HER2 [3] (later timepoints, up to 72 hours), the “internalization and lysosomal processing of HER2 bound to trastuzumab” value is “HER2 bound to trastuzumab was internalized and directed towards lysosomes”. Further, the “tumor growth / tumor control” value in the data set on CTG-0807 model (T-DM1 resistant PDX model CTG-0807) and with CTG-0708 model (T-DM1 resistant PDX model CTG-0708) was “inhibited tumor growth” throughout. The “maximum-tolerated dose (MTD) of tucatinib” value in the data set with HER2+ mBC amounted to 300 mg. Also, the “effect on digoxin concentrations (drug interaction)” value at P-gp was “increases digoxin concentrations”. For the same compound, the “HER2 total protein levels (normalized against GAPDH)” value on HER2 [4] is “increased”.
“ado-trastuzumab emtansine [T-DM1, reference compound]”: the results for the partial responses entry (in data set [1]; with CTG-0807 model (setting [5]); with CTG-0708 model (setting [6])) were “nine”, “no partial or complete responses” and “no partial or complete responses”, respectively. Moreover, the complete responses result with CTG-0807 model (setting [5]) and with CTG-0708 model (setting [6]) was “no partial or complete responses” in each case.
